Source: patent publication US20010025105A1, “Certain substituted 1-aryl-3-piperazine-1'-yl propanones” (Molecular Geriatarics Corporation, priority 1997, published 2001)
Structures can show the parent of a compound that is named as a salt.

Test system: microtubule cytoskeleton of human CG neuroblastoma cells
Assay: Antimicrotubule activity, tubulin immunofluorescence microscopy
Type: cell-based
Conditions: 2 hr at 37° C., read-out: Concentration where microtubule destabilization occurs
Description: The compounds of the invention according to formula I are effective in destabilizing microtubules, thus are useful in treating certain neoplastic diseases. Indirect immunofluorescence microscopy using the monoclonal antibodies to tubulin is used herein to determine the activity of the compounds of this invention in promoting depolymerization of the microtubule cytoskeleton in cultured cells. The following assay was employed.
Cultured human CG neuroblastoma cells were seeded 1:3 from confluent cultures onto sterile 11×22 mm coverslips in 6 well tissue culture plates 16 hr prior to treatment. The following day, the tissue culture medium is removed and the cells are exposed to various concentrations of compounds of this invention in Krebs Ringer Hepes (KRH) buffer containing a final concentration of 0.5% DMSO as carrier. Incubations were performed at 37° C. in a humidified 5% CO2 atmosphere for 2 hr. After incubation, the cells were fixed in 3% TEM grade formaldehyde in PBS for 45 min at room temperature.
To visualize the effects of the compounds of the invention on the microtubule cytoskeleton, the cells were processed for tubulin immunofluorescence. Briefly, the cells were permeabilized in 0.5% Triton-X 100 in PBS for 5 min. The cells were washed 2× with PBS and aldehydes reduced using 0.5 mg/ml NaBH4 in PBS for 5 min. Subsequently, the cells were blocked for 10 min in 1.5% BSA and 1.5% nonfat dry milk in PBS (blocking solution, BS) for 10 min. The cells were then incubated for 30 min at 37° C. with the monoclonal antibody Tu27B which recognizes b-tubulin (dilution 1:20 in BS). Subsequently, the cells were washed 2× in PBS and once in BS. The cells were then incubated for 30 min at 37° C. with sheep antimouse IgG conjugated to FITC. After incubation, the cells were washed 2× in PBS and once in BS and incubated for 30 min at 37° C. with rabbit antisheep IgG conjugated to FITC. The cells were rinsed in PBS, counterstained with Hoechst 33285 in PBS (1 μg/ml), and rinsed in PBS. The coverslips were mounted in 9:1 glycerol:PBS containing 1 mg/ml p-phenylenediamine and sealed with nail polish.
The cells were viewed using a Jenalumar epifluorescence microscope equipped with the proper filters for Fluorescein Isothiocyanate (FITC) excitation and emission. Lack of effect of a compound is evidenced by the presence of an intact microtubule network in interphase cells, or a mitotic spindle in dividing cells. Antineoplastic compounds of the invention at effective doses result in the disappearance of microtubules in both interphase and mitotic cells.

**Q.** Which minimal effective concentration does the source give for `Cl.Cl.O=C(CCN1CCN(Cc2ccccc2)CC1)c1cccs1` [Example 7, 1-(2″-Thienyl)-3-(4′-benzyl-1′-piperazinyl)-1-propanone dihydrochloride] here?
**A.** Its minimal effective concentration is 20 µM.

**Q.** With `Cl.Cl.O=C(CCN1CCN(Cc2ccccc2)CC1)c1ccc(C2CCCCC2)cc1` [Example 27] as the molecule, how does the minimal effective concentration read?
**A.** Its minimal effective concentration is 20 µM.

**Q.** With `Cl.Cl.O=C(CCN1CCN(Cc2cc(F)ccc2F)CC1)c1ccsc1` [Example 38, 1-(3″-Thienyl)-3-[4′-(2′″,5′″-difMuorobenzyl)-1′-piperazinyl]-1-propanone dihydrochloride] as the molecule, how does the minimal effective concentration read?
**A.** The minimal effective concentration was 20 µM.

**Q.** With `Cl.O=C(CCN1CCN(C(=O)c2c(F)cccc2F)CC1)c1ccccc1F` [Example 41, 1-(o-Fluorophenyl)-3-[4′-(2″,6″-difluorobenzoyl)1′-piperazinyl]-1-propanone hydrochloride] as the molecule, how does the minimal effective concentration read?
**A.** Its minimal effective concentration is 20 µM.

**Q.** For `Cl.Cl.N#Cc1cccc(C(=O)CCN2CCN(Cc3ccccc3)CC2)c1` [Example 60, 1-(m-Cyanophenyl)-3-(4′-benzyl-1′-piperazinyl)-1-propanone dihydrochloride], which minimal effective concentration is on record?
**A.** The minimal effective concentration was 20 µM.

**Q.** For `Cl.Cl.N#Cc1ccc(C(=O)CCN2CCN(Cc3ccccc3)CC2)s1` [Example 85, 1-(5″-Cyano-2″-thienyl)-3-(4′-benzyl-1′-piperazinyl)-1-propanone dihydrochloride], which minimal effective concentration is on record?
**A.** The minimal effective concentration was 20 µM.

**Q.** With `Cl.Cl.O=C(CCN1CCN(Cc2ccccc2)CC1)c1conc1-c1ccccc1` [Example 112, 1-(3″-Phenylisoxazol-4″-yl)-3-(4′-benzyl-1′-piperazinyl)-1-propanone dihydrochloride] as the molecule, how does the minimal effective concentration read?
**A.** Its minimal effective concentration is 20 µM.

Same assay, conditions: Neuroblastoma cell, 2 hr at 37° C., read-out: Concentration where microtubule destabilization occurs

**Q.** Which minimal effective concentration does the source give for `O=C(CCN1CCN(Cc2ccccc2)CC1)c1cc(C(F)(F)F)cc(C(F)(F)F)c1` [Example 9, 1-[3″,5″-Bis-(trifluoromethyl)phenyl]-3-(4′-benzyl-1′-piperazinyl)-1-propanone dihydrochloride] here?
**A.** The minimal effective concentration was 20 µM.

**Q.** With `O=C(CCN1CCN(Cc2ccccc2)CC1)c1ccc2c(c1)CCCC2` [Example 20, 1-(1″,2″,3″,4″-Tetrahydronaphth-6″-yl)-3-(4′-benzyl-1′-piperazinyl)-1-propanone dihydrochloride] as the molecule, how does the minimal effective concentration read?
**A.** Its minimal effective concentration is 20 µM.

**Q.** With `O=C(CCN1CCN(Cc2ccccc2)CC1)c1ccc(-c2ccccc2)cc1` [Example 22, 1-p-Biphenyl-3-(4′-benzyl-1′-piperazinyl)-1-propanone dihydrochloride] as the molecule, how does the minimal effective concentration read?
**A.** Its minimal effective concentration is 20 µM.

**Q.** For `O=C(CCN1CCN(C(=O)c2c(F)cccc2F)CC1)c1ccc([N+](=O)[O-])cc1` [Example 40, 1-(p-Nitrophenyl)-3-[4′-(2″,6″-difluorobenzoyl)-1′-piperazinyl]-1-propanone hydrochloride], which minimal effective concentration is on record?
**A.** Its minimal effective concentration is 20 µM.

**Q.** With `O=C(CCN1CCN(Cc2ccccc2)CC1)c1ccc(C(=O)CCN2CCN(Cc3ccccc3)CC2)cc1` [Example 50] as the molecule, how does the minimal effective concentration read?
**A.** Its minimal effective concentration is 20 µM.

**Q.** With `O=C(CCN1CCN(C(=O)c2ccccc2F)CC1)c1cccs1` [Example 70, 1-(2″-Thienyl)-3-[4′-(o-fluorobenzoyl)-1′-piperazinyl]-1-propanone hydrochloride] as the molecule, how does the minimal effective concentration read?
**A.** The minimal effective concentration was 20 µM.

Test system: not given
Assay: not given
Conditions: not given

**Q.** Which melting point does the source give for `CS(=O)(=O)Nc1ccc(C(=O)CCN2CCN(Cc3ccccc3)CC2)cc1` (as salt: hydrochloride) [Example 26, 1-[-p-(Methanesulfonamido)phenyl]-3-(4′-benzyl-1′-piperazinyl)-1-propanone dihydrochloride] here?
**A.** Its melting point is 202 to 205 °C.

**Q.** Which melting point does the source give for `O=C(CCN1CCN(Cc2ccccc2)CC1)c1ccc2c(c1)Cc1ccccc1-2` (as salt: hydrochloride) [Example 28, 1-(Fluoren-2″-yl)-3-(4′-benzyl-1′-piperazinyl)-1-propanone dihydrochloride] here?
**A.** Its melting point is 225 °C (dec.).

**Q.** Which melting point does the source give for `O=C(CCN1CCN(C(=O)c2c(F)cccc2F)CC1)c1ccc([N+](=O)[O-])cc1` (as salt: hydrochloride) [Example 40, 1-(p-Nitrophenyl)-3-[4′-(2″,6″-difluorobenzoyl)-1′-piperazinyl]-1-propanone hydrochloride] here?
**A.** The melting point was 225 to 227 °C.

**Q.** Which melting point does the source give for `O=C(CCN1CCN(C(=O)c2ccccc2F)CC1)c1ccc([N+](=O)[O-])cc1` (as salt: hydrochloride) [Example 54, 1-(p-Nitrophenyl)-3-(4′-o-fluorobenzoyl-1′-piperazinyl)-1-propanone dihydrochloride] here?
**A.** The melting point was 217 to 218 °C.

**Q.** With `O=C(CCN1CCN(Cc2ccccc2)CC1)c1ccc(-c2ccccc2)s1` (as salt: hydrochloride) [Example 56, 1-(5″-Phenyl-2″-thienyl)-3-(4′-benzyl-1′-piperazinyl)-1-propanone dihydrochloride] as the molecule, how does the melting point read?
**A.** The melting point was 224 to 247 °C.

**Q.** With `O=C(CCN1CCN(C(=O)c2c(F)cccc2F)CC1)c1ccc(Br)s1` (as salt: hydrochloride) [Example 62, 1-(5′″-Bromo-2′″-thienyl)-3-[4′-(2″,6″-difluorobenzoyl)-1′-piperazinyl]-1-propanone hydrochloride] as the molecule, how does the melting point read?
**A.** Its melting point is 225 to 226 °C.

**Q.** Which melting point does the source give for `Cc1ccc(C(=O)CCN2CCN(Cc3ccccc3)CC2)o1` (as salt: hydrochloride) [Example 67, 1-(5″-Methyl-2″-furanyl)-3-(4′-benzyl-1′-piperazinyl)-1-propanone hydrochloride] here?
**A.** Its melting point is 213 °C (dec.).

**Q.** Which melting point does the source give for `O=C(CCN1CCN(C(=O)c2ccc(I)cc2)CC1)c1ccc(N2CCOCC2)cc1` (as salt: hydrochloride) [Example 68, 1-(p-N-Morpholinophenyl)-3-[4′-p-iodobenzoyl)-1′-piperazinyl]-1-propanone dihydrochloride] here?
**A.** Its melting point is 240 °C.

**Q.** With `O=C(CCN1CCN(Cc2ccccc2)CC1)c1ccc(Sc2ccccc2)cc1` (as salt: hydrochloride) [Example 69, 1-p-Phenylthiophenyl-3-(4′-benzyl-1′-piperazinyl)-3-propanone dihydrochlonde] as the molecule, how does the melting point read?
**A.** The melting point was 210 °C (dec.).

**Q.** For `O=C(CCN1CCN(C(=O)c2ccccc2F)CC1)c1cccs1` (as salt: hydrochloride) [Example 70, 1-(2″-Thienyl)-3-[4′-(o-fluorobenzoyl)-1′-piperazinyl]-1-propanone hydrochloride], which melting point is on record?
**A.** The melting point was 183 to 184 °C.

**Q.** For `COc1ccc(C(=O)CCN2CCN(Cc3ccccc3)CC2)c2ccccc12` (as salt: hydrochloride) [Example 79, 1-(4″-Methoxy-1″-naphthalenyl)-3-(4′-benzyl-1′-piperazinyl)-1-propanone dihydrochloride], which melting point is on record?
**A.** Its melting point is 230 °C (dec.).

**Q.** With `Cc1c(C(=O)CCN2CCN(Cc3ccccc3)CC2)sc2ccc(Cl)cc12` (as salt: hydrochloride) [Example 82, 1-(5″-Chloro-3″-methylbenzo[b]-2″-thienyl)-3-(4′-benzyl-1′-piperazinyl)-1-propanone dihydrochloride] as the molecule, how does the melting point read?
**A.** The melting point was 247 °C (dec.).

**Q.** With `O=C(CCN1CCN(C(=O)c2sc3ccccc3c2Cl)CC1)c1ccc(Br)s1` (as salt: hydrochloride) [Example 86, 1-(5″-Bromo-2″-thienyl)-3-[4′-(3′″-chlorobenzo[b]-2′″-thienoyl)-1′-piperazinyl]-1-propanone dihydrochloride] as the molecule, how does the melting point read?
**A.** Its melting point is 188 to 189 °C.

**Q.** With `O=C(CCN1CCN(C(c2ccccc2)c2ccc(Cl)cc2)CC1)c1cccs1` (stereo not shown) (as salt: hydrochloride) [Example 89, 1-(2″-Thienyl)-3-[4′-(1′″-p-chlorophenyl-1′″-phenylmethyl)-1′-piperazinyl]-1-propanone dihydrochloride] as the molecule, how does the melting point read?
**A.** The melting point was 189 to 201 °C.

**Q.** With `O=C(CCN1CCN(Cc2ccccc2)CC1)c1cccn1S(=O)(=O)c1ccccc1` (as salt: hydrochloride) [Example 91, 1-(N-Phenylsulfonylpyrrol-2-yl)-3-(4′-benzyl-1′-piperazinyl)-1-propanone dihydrochloride] as the molecule, how does the melting point read?
**A.** Its melting point is 215 °C (dec.).

**Q.** With `O=C(CCN1CCC(C(=O)c2ccc(F)cc2)CC1)c1csc([N+](=O)[O-])c1` (as salt: hydrochloride) [Example 98, 1-(2″-Nitro-4″-thienyl)-3-(4′-p-fluorobenzoyl-1′-piperidinyl)-1-propanone hydrochloride] as the molecule, how does the melting point read?
**A.** Its melting point is 205 to 206 °C.

**Q.** For `O=C(CCN1CCC(Cc2ccccc2)CC1)c1ccc(Br)s1` (as salt: hydrochloride) [Example 99, 1-(5″-Bromo-2″-thienyl)-3-(4′-benzyl-1′-piperidinyl)-1-propanone hydrochloride], which melting point is on record?
**A.** Its melting point is 205 to 208 °C.

**Q.** For `O=C(CCN1CCN(Cc2ccccc2)CC1)c1ccc2c(c1)-c1ccccc1-2` [Example 58, 1-(Biphenylen-2″-yl)-3-(4′-benzyl-1′-piperazinyl)-1-propanone], which melting point is on record?
**A.** Its melting point is 133 to 134 °C.
